Data from PMC7997579, “Synthetic Lethality in Pancreatic Cancer: Discovery of a New RAD51-BRCA2 Small Molecule Disruptor That Inhibits Homologous Recombination and Synergizes with Olaparib” (Journal of Medicinal Chemistry, 2020).
Like-named read-outs stand apart in the source and are kept apart here.

Experiments:
[1] = system: homologous recombination in BxPC3 cells; set-up: method as in PMID 30660828; conditions: earlier triazole; cited from earlier work
[2] = Solubility (as observed in cell culture media / stated); format: physicochemical; conditions: cell culture media
BRC4–RAD51 interaction = target: T1, BRC4–RAD51 interaction (Homo sapiens, UniProt Q06609); assay: Competitive biochemical ELISA assay (biotinylated BRC4 peptide vs RAD51); format: binding
T1 construct: purchased Creative Biomart (RAD51); Life Technologies (BRC4 peptide)
T1 sequence (Q06609 1-339): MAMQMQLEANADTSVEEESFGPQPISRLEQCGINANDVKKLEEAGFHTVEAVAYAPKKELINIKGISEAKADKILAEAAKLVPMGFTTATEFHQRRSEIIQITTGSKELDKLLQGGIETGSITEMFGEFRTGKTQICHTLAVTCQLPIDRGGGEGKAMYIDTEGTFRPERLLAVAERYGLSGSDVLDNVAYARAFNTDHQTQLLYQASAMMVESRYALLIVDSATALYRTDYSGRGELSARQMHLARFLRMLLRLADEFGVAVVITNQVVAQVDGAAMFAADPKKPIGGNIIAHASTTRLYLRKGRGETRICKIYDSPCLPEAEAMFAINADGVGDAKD
Protocol: To investigate the mechanism of action of the new dihydroquinolone pyrazoline derivatives, different biological assays were performed. As a primary screening, the ability of compounds 5d–57d to inhibit RAD51-BRCA2 interaction was investigated with a competitive biochemical ELISA assay against the parent compound 4d (Table 1). This assay is effective in evaluating the ability of new molecules to compete with BRC4 to bind to RAD51.[30] […] 18d–21d, 23d, 25d, 30d, and 31d were active at micromolar range, all very similar to the initial hit. […] The replacement of the aromatic ring A in combination with the substitution of the pyrazoline nitrogen with either propionyl or acetyl chain yielded compounds 33d–51d. […] As expected for PPI disruptors, the SARs of the new series of dihydroquinolone pyrazoline were rather complex to rationalize, with many cliffs and spikes that were difficult to understand. […] Accordingly, 4d, 12d, 18d, 20d–23d, 30d, 31d, 33d–36d, 39d, 45d, and 49d were submitted to cell-based study (Table 2).
Competitive ELISA screening assay using biotinylated BRC4 peptide to disrupt the BRC4–RAD51 interaction was performed by modifying the method described by Rajendra et al.[33] BRC4-biotinylated peptide (N-term biotin-[…] from Life Technologies) was used to coat 384-well plates (Nunc). After washing with PBS containing 0.05% Tween-20 (PBST) and blocking with the solution BSA 1% /PBST, overnight hybridization with human RAD51 protein (NP_002866 Creative Biomart, NY) was performed. Test compounds were added in dose response from 0.01 to 100 μM in triplicate with constant DMSO 1%. Antibody raised against RAD51 (Millipore) and HRP-secondary antibody staining to develop the 3,3′,5,5′-tetramethylbenzidine signal (Sigma) quenched with 1 M HCl was used as the assay readout. Colorimetric measure was read on a Victor5 (PerkinElmer) plate reader. BRC4 and Rad51 were included in the assay as positive control. Results were analyzed by using GraphPad software.

[3] = system: homologous recombination in BxPC3 cells; assay: Homologous recombination assay (two-plasmid recombination, real-time PCR); format: cell-based, human; conditions: BxPC3; one or two doses in the range of the ELISA EC50; NDD = not dose-dependent
Description: Our working hypothesis is that compounds disrupting RAD51-BRCA2 interaction should affect HR repair and increase the efficacy of PARPi in treating breast, ovarian, and pancreatic cancer. For its clinical relevance, pancreatic adenocarcinoma was selected as our final model for cell-based experiments, and BxPC3 cells were selected for a straightforward comparison with the previously reported triazole derivatives.[30],[31] BxPC3 is derived from a human adenocarcinoma that expresses fully functional BRCA2.[38] As shown in Table 2 and according to the rationale of our hypothesis, our preliminary screening consisted of verifying the efficacy of compounds in inhibiting cell HR and/or in increasing the antiproliferative effect of olaparib. […] HR activity was assessed by evaluating the recombination rate between two transfected plasmids, using a commercially available assay. […] As for the emissucinic acid-containing compounds (4d, 12d, 18d, 20d–23d, 30d, 31d), one of the reasons for their lower potency in cells might be the general poor permeability, likely related to the ionizable acid moiety. […] We then characterized 35d in additional biophysical and cell-based experiments.
Homologous recombination (HR) was assessed by using a commercially available assay (Norgen). This assay is based on cell transfection with two plasmids that, upon cell entry, recombine. The efficiency of HR can be assessed by real-time PCR, using primer mixtures included in the assay kit. Different primer mixtures allow one to discriminate between the original plasmid backbones and their recombination product.
BxPC3 cells (2 × 10^5 per well) were seeded in a 24-well plate and allowed to adhere overnight. Co-transfection with the two plasmids was performed in Lipofectamine 2000 (Invitrogen) according to the manufacturer’s instructions. During transfection (5 h), cells were exposed to different doses of RAD51-BRCA2 disruptors, dissolved in RPMI in the presence of 0.6% DMSO. After washing with PBS, cells were harvested, and DNA was isolated using Illustra Tissue and Cell Genomic Prep Mini Spin kit (GE Healthcare). Sample concentration was measured using an ONDA Nano Genius photometer. The efficiency of HR was assessed by real-time PCR, using 25 ng of template, the primer mixtures included in the assay kit and following the protocol indicated by the manufacturer. Data analysis was based on the ΔΔCt method: [recombination product/backbone plasmids]^treated versus [recombination product/backbone plasmids]^control.

Capan-1 cells = assay: Immunofluorescence of nuclear γ-H2AX foci (DNA damage); format: cell-based, human; conditions: Capan-1, 48 h, 10 μM olaparib alone
Protocol: To evaluate DNA damage through γH2AX nuclear foci, BXPC3 and Capan1 cells were seeded on glass coverslips in 6-well tissue culture plate (2 × 10^5 cells/well) and allowed to adhere overnight. After 48 h treatment with olaparib (10 μM) or 35d (20 μM) given alone or in combination, cultures growing on coverslips were fixed and treated as described above. For this experiment, the used antibodies were a rabbit polyclonal anti-γH2AX (Abcam, 1:1000 in 5% BSA/PBS) and a secondary anti-rabbit rhodamine-labeled (Novus Biologicals, 1:1000 in 1% BSA/PBS). For both experiments, images were acquired using a Nikon fluorescent microscope equipped with filters for FITC, TRITC, and DAPI. The percentage of cells bearing nuclear foci was estimated by two independent observers, by analyzing 100–250 cells for each treatment sample.

[4] = Table 2, compounds selected for cell-based study, read-out: EC50 ELISA
[5] = competition with BRC4 for RAD51, triplicate, ± standard deviation, NA = not active, racemic mixtures unless enantiomer named, read-out: EC50 (μM) on ELISA assay

Row | Structure (SMILES) | HR inhibition [1] | solubility in cell culture media [2] | EC50 (BRC4–RAD51 interaction; [4]) | EC50 (BRC4–RAD51 interaction; [5]) | HR inhibition (in words) [3] | γ-H2AX labeling in nuclei (Capan-1 cells)
1 | O=C(CSc1nnc(Cn2c(=O)sc3ccccc32)n1CCCc1ccccc1)NC1CCCCC1 [Compound 3] | ≤ 40% |  |  |  |  | 
2 | CCn1ncc2cc(-c3ccc(C4CC(c5c(-c6ccccc6)c6cc(Cl)ccc6[nH]c5=O)=NN4C(=O)CCC(=O)O)cc3)ccc21 (stereo not drawn) [Compound 30d, 4-(3-(6-Chloro-2-oxo-4-phenyl-1,2-dihydroquinolin-3-yl)-5-(4-(1-ethyl-1H-indazol-5-yl)phenyl)-4,5-dihydro-1H-pyrazol-1-yl)-4-oxobutanoic Acid] |  | poor solubility | 15 ± 3 µM | 15 ± 3 µM |  | 
3 | CCC(=O)N1N=C(c2c(-c3ccccc3)c3cc(Cl)ccc3[nH]c2=O)CC1c1ccc(Br)cc1 (stereo not drawn) [Compound 34d, 3-(5-(4-Bromophenyl)-1-propionyl-4,5-dihydro-1H-pyrazol-3-yl)-6-chloro-4-phenylquinolin-2(1H)-one] |  | poor solubility | 19 ± 1 µM | 19 ± 1 µM | HR inhibition = not present | 
4 | O=C(c1cc(Cc2n[nH]c(=O)c3ccccc23)ccc1F)N1CCN(C(=O)C2CC2)CC1 [olaparib] |  |  |  |  |  | increased nuclear labeling
